# Assay results as given in US10351915B2 (Berg LLC, priority 2009, dated 2019).
# What was measured:
# [1] = cited from earlier work
# [2] = test system: Isocitrate Dehydrogenase-1 (IDH-1); assay: Western blot, IDH1 levels; assay type: cell-based, human
# Procedure: The whole cell pellets were resuspended one at a time in 1 mL of C7 buffer and transferred to labeled 15 mL tubes. The samples were then sonicated in the cold room on ice using 6 sonic pulses with the setting at #14. The samples were spun for a short time to 2500 g after sonication and the samples transferred to 2 ml tubes. The pH was verified of each sample (pH should be 9.0) using the foam remaining in the […] sample tubes.
# Alkylation and reduction of samples was performed for each sample by adding 10 ul of 1M acrylamide, 25 ul of tributylphoshene and incubation for 90 mins with intermittent mixing. After incubation, 10 ul of 1M DTT was added and the tubes were spun at 20,000 g at 20 deg C. for 10 minutes and transferred the supernatant to labeled Amicon Ultra centrifugal filter units with a 10 k cut off (Millipore catalog # UFC 801024). The samples were spun for 15 minutes at 2500 g in 2 intervals. The conductivity was measured for Chaps alone as well as the samples using a conductivity meter. If the conductivity of samples is high, then 1 ml of chaps was added for buffer exchange and spun again at 2500 g until the volume was down to 250 ul. When the conductivity was 200 or less the samples were spun in 5 min intervals at 2500 g until the volume of the supernatant was between 150-100 ul. The sample supernatants were transferred to eppendorf tubes and Bradford assay was performed using BSA as standard.
# The samples were processed as per standard protocols as described above and the amount of protein in each of the samples was determined by Bradford assay. Sample volumes equivalent to 10 ug of protein were prepared as shown below with Lamelli Loading dye (LDS) and MilliQ water were run on a 4-12% Bis-Tris Novex NuPAGE gel (Invitrogen, cat # NP0323Box)
# The gels were run for 50 minutes using 1×MOPS buffer using a NOVEX Xcell Surelock system at 200 V. The gels were then transferred for 1 hour using a NOVEX Xcell Surelock wet transfer protocol at 30 V. The blots were stained with Simply Blue Safestain from Invitrogen (LC6065).
# After transfer each of the blots was placed in between 2 Whatman Filter papers and dried for 15-20 minutes. After drying the blots were labeled with the date, the type of samples and either blot 1 or blot 2 using a HB pencil. The molecular weight markers were outlined with the pencil and with single lines for the blue and a doublet for the colored markers. The blots were activated with methanol for 5 seconds, washed with water for 5 minutes, and TBST for 15 minutes. The blots were blocked for 1 hour with 5% blocking reagent in TBS-T at room temperature and then washed 3 times with TBS-T (1×-15′; 2×5′ each). […]
# ATP Citrate Lyase (ACL) = assay: Western blot, ATP Citrate Lyase levels; assay type: cell-based, human; conditions: for ATP Citrate Lysase as % of CTRL, Normalized Intensity: 48 h
# Procedure: After transfer each of the blots was placed in between 2 Whatman Filter papers and dried for 15-20 minutes. After drying the blots were labeled with the date, the type of samples and either blot 1 or blot 2 using a HB pencil. The molecular weight markers were outlined with the pencil and with single lines for the blue and a doublet for the colored markers. The blots were activated with methanol for 5 seconds, washed with water for 5 minutes, and TBST for 15 minutes. The blots were blocked for 1 hour with 5% blocking reagent in TBS-T at room temperature and then washed 3 times with TBS-T (1×-15′; 2×5′ each). Blot 1 was probed with the primary antibody for IDH1 (Cell Signaling #3997) in TBST with 5% BSA (at 1:1000 dilutions) and blot 2 with the rabbit polyclonal antibody for ATP Citrate Lyase in 5% BSA (Cell Signaling #4332) at 1:1000 dilution by incubation overnight at 4 deg C. with shaking. After the overnight incubation with primary antibodies, the blots were washed 3 times with TBS-T (1×-15′; 2×5′ each) and probed with the secondary antibody (antirabbit; 1:10,000 dilution) for 1 h on the orbital tilting shaker at room temperature. After 1 h of incubation with secondary antibodies, the blots were washed 3 times with TBS-T (1×-15′; 2×5′ each) and then incubated with ECF reagent for 5 mins and then each blot scanned with 5100 Fuji Laser scanner at 25 uM resolution, 16 bit, green laser, at 400V and at 500 V.
# The Isocitrate dehydrogenase blot was stripped by incubating for 30 minutes with methanol, followed by two 10 minute washes with TBS-T, then 30 minutes of incubation with stripping buffer at 50 deg C., and followed by two washes with 100 ml or more of TBS-T for 30′ each. The blot was scanned in laser scanner to check for complete stripping. The blot was activated with methanol for 5 seconds, washed with water for 5 minutes, and TBST for 15 minutes. The blot was blocked for 1 hour with 5% blocking reagent in TBS-T at room temperature and then washed 3 times with TBS-T (1×-15′; 2×5′ each). This was then probed with the rabbit polyclonal antibody for ATP Citrate Lyase in 5% BSA (Cell Signaling #4332) at 1:1000 dilution overnight at 4 deg C. with shaking. After the overnight incubation with primary antibody for ATP Citrate Lyase, the membrane was washed 3 times with TBS-T (1×-15′; 2×5′ each) and probed with the secondary antibody (antirabbit; 1:10,000 dilution) for 1 h on the orbital tilting shaker at room temperature. After 1 h of incubation with secondary antibodies, the blot was washed 3 times with TBS-T (1×-15′; 2×5′ each) and then incubated with ECF reagent for 5 minutes and then each blot scanned with 5100 Fuji Laser scanner at 25 uM resolution, 16 bit, green laser, at 400V and at 500 V.
# The levels of IDH1, ATP citrate lyase and actin levels were determined by probing the blots with primary antibodies for IDH1, ATP citrate lyase and actin, essentially as described above.
# PaCa-2 cells = assay: Extracellular acidification rate (ECAR), SeaHorse XF analyzer; assay type: cell-based; conditions: normoxia, high glucose
# Procedure: (SeaHorse Biosciences Inc, North Billerica, Mass.).
# In contrast to normal cells, cancer cells are phenotypically primed to use high glucose for ATP generation (enhanced glycolysis) resulting in higher ECAR (Table 129, ECAR for untreated normoxia 17 mM) at 21 mpH/min. […] The associated decrease in OCR in these cells was likely associated with increased efficiency of the mitochondrial OXPHOS.
# SCC cells = assay: Real-time PCR Heat Shock Protein Array; assay type: cell-based
# Description: The control cells were untreated cells.
# Heat Shock Arrays were run for SCC cells and the data of regulated genes is summarized below in Table 13.
# [3] = one study with rats; cited from earlier work
smiles,measurement,setting,value
"COC1=C(OC)C(=O)C(C/C=C(\C)CC/C=C(\C)CC/C=C(\C)CC/C=C(\C)CC/C=C(\C)CC/C=C(\C)CC/C=C(\C)CC/C=C(\C)CC/C=C(\C)CCC=C(C)C)=C(C)C1=O [Q10, Coenzyme Q10]",solubility in water,[1],insoluble in water
same,"IDH1, Average Normalized Intensity","[2]; HDFa cells, HDF24-100 (HDF, Media = 346)",600
same,expression pattern of IDH1,"[2]; HDFa, nFIB and HASMC",did not demonstrate significant changes
same,expression of IDH1,[2]; SCC25 cell lines,moderate increase in expression
same,expression of IDH1,"[2]; cancer cell lines MCF-7, SKMEL28, HepG2 and PaCa-2",increased expression
same,"ATP Citrate Lysase as % of CTRL, Normalized Intensity","ATP Citrate Lyase (ACL); HepG2, 5g glucose, amount 50",0.85 % of CTRL
same,"ATP Citrate Lysase as % of CTRL, Normalized Intensity","ATP Citrate Lyase (ACL); HepG2, 5g glucose, amount 100",0.79 % of CTRL
same,"ATP Citrate Lysase as % of CTRL, Normalized Intensity","ATP Citrate Lyase (ACL); HepG2, 22G glucose, amount 100",2.09 % of CTRL
same,"ATP Citrate Lysase as % of CTRL, Normalized Intensity","ATP Citrate Lyase (ACL); PACA2, 5g glucose, amount 50",0.68 % of CTRL
same,"ATP Citrate Lysase as % of CTRL, Normalized Intensity","ATP Citrate Lyase (ACL); PACA2, 5g glucose, amount 100",0.42 % of CTRL
same,"ATP Citrate Lysase as % of CTRL, Normalized Intensity","ATP Citrate Lyase (ACL); PACA2, 22G glucose, amount 50",1.12 % of CTRL
same,expression of ACL,ATP Citrate Lyase (ACL); cancer cells,dose-dependent decrease
same,ECAR rates,PaCa-2 cells,significant decrease in ECAR rates
same,DNAJA1 Regulation,"SCC cells; 100 μM Q10, at 6 hours",Up regulated at 6
same,DNAJB5 Regulation,"SCC cells; 100 μM Q10, at 6 hours",Down regulated
same,DNAJB13 Regulation,"SCC cells; 100 μM Q10, at 6 hours",Down regulated
same,DNAJC4 Regulation,"SCC cells; 100 μM Q10, at 6 hours",Down regulated
same,DNAJC5B Regulation,"SCC cells; 100 μM Q10, at 6 hours",Down regulated
same,DNAJC12 Regulation,"SCC cells; 100 μM Q10, at 6 hours",Down regulated
same,HSPA8 Regulation,"SCC cells; 100 μM Q10, at 6 hours",Up regulated at 6
same,HSPH1 Regulation,"SCC cells; 100 μM Q10, at 6 hours",Up regulated at 6
same,CCT6B Regulation,"SCC cells; 100 μM Q10, at 24 hours",Down regulated
same,orally-administered CoQ10 absorbed,[3],2-3%
